Data reported in patent US20240000791A1, “Methods of Using 4-Amino-N-[4-(Methoxymethyl)Phenyl]-7-(1-Methylcyclopropyl)-6-(3-Morpholinoprop-1-YN-1-YL)-7H-Pyrrolo[2,3-D]Pyrimidine-5-Carboxamide for the Treatment of Tumors” (Helsinn Healthcare SA, priority 2020, published 2024).
Read-outs that look alike come from different tables or passages of the source.

Key:
FLT4 = FLT4 (Homo sapiens, UniProt P35916); experiment: Kinase inhibition; assay type: biochemical
PDGFRα = PDGFRα (Homo sapiens, UniProt P16234); experiment: Kinase inhibition; assay type: biochemical
PDGFRβ = PDGFRβ (Homo sapiens, UniProt P09619); experiment: Kinase inhibition; assay type: biochemical
FGFR1 = FGFR1 (Homo sapiens, UniProt P11362); experiment: Kinase inhibition; assay type: biochemical
FGFR2 = FGFR2 (Homo sapiens, UniProt P21802); experiment: Kinase inhibition; assay type: biochemical
FGFR3 = FGFR3 (Homo sapiens, UniProt P22607); experiment: Kinase inhibition; assay type: biochemical
DDR1 = DDR1 (Homo sapiens, UniProt Q08345); experiment: Kinase inhibition; assay type: biochemical
DDR2 = molecular target: T1, DDR2 (Homo sapiens, UniProt Q16832); experiment: Kinase inhibition; assay type: biochemical
T1 sequence (Q16832 22-855): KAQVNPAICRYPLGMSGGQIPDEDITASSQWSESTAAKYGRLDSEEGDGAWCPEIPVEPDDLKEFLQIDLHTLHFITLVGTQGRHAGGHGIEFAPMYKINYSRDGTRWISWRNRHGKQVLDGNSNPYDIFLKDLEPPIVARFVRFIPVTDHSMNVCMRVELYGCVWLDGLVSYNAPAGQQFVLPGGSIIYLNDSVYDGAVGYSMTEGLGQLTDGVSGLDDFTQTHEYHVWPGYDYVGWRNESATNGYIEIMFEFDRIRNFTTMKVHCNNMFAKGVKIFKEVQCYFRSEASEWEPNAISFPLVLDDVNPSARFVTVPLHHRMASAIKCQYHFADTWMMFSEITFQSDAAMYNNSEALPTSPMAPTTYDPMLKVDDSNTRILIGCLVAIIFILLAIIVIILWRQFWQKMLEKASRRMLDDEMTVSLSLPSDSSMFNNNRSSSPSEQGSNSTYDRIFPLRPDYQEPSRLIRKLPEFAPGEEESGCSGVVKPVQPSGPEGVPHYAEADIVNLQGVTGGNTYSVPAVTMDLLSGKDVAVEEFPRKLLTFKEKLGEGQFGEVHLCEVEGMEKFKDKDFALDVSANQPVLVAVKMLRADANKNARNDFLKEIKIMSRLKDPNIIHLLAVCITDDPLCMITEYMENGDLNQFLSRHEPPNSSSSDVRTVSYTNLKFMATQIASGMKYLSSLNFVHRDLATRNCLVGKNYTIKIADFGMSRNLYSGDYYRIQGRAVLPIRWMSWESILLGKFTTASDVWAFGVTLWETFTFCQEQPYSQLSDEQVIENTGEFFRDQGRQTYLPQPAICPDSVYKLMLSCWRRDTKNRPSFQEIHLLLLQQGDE

JAK1 = JAK1 (Homo sapiens, UniProt P23458); experiment: Kinase inhibition; assay type: biochemical
JAK2 = JAK2 (Homo sapiens, UniProt O60674); experiment: Kinase inhibition; assay type: biochemical
JAK3 = molecular target: T2, JAK3 (Homo sapiens, UniProt P52333); experiment: Kinase inhibition; assay type: biochemical
T2 sequence (P52333 1-1124): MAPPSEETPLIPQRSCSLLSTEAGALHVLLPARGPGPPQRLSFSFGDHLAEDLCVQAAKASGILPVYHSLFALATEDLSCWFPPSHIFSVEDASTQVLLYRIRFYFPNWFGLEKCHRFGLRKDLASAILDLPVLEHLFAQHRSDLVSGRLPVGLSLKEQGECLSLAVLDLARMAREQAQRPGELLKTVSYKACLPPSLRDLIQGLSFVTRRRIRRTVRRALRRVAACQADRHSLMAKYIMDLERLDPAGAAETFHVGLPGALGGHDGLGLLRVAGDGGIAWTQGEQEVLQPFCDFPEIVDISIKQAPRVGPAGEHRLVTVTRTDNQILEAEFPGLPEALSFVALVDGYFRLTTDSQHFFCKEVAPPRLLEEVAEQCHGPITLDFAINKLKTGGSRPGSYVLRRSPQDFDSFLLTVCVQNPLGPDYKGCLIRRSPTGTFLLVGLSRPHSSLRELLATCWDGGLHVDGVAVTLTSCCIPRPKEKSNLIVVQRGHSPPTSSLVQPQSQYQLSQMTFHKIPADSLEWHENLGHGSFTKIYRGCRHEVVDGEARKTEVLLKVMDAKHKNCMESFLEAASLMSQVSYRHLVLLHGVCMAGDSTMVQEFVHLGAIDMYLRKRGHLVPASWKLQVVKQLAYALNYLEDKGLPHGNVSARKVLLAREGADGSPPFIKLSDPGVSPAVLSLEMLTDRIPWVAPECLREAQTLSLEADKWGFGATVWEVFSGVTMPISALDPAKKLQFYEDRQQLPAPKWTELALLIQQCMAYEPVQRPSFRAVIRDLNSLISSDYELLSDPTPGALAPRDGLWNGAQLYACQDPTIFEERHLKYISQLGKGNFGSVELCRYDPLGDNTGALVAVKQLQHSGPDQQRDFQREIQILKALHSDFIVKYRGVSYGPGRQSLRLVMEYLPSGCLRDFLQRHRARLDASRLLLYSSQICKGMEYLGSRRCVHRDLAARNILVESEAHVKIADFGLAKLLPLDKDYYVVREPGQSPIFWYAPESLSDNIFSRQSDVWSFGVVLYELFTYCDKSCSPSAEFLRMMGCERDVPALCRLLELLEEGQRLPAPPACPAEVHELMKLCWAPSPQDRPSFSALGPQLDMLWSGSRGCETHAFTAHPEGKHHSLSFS

Ba/F3 KIF5B-RET V804M = experiment: Cell viability CellTiter-Glo 2.0; assay type: cell-based; conditions: Mus musculus, read-out: GI50 values
Ba/F3 KIF5B-RET G810S = experiment: Cell viability CellTiter-Glo 2.0; assay type: cell-based; conditions: Mus musculus, read-out: GI50 values
[1] = test system: Ba/F3 KIF5B-RET^G810R cells; experiment: Ba/F3 KIF5B-RET G810R subcutaneous tumor model, first study; assay type: in vivo, mouse; conditions: 14 days; for tumor regrowth at the end of the study: 30 mg/kg bid oral
[2] = test system: Ba/F3 KIF5B-RET^G810R cells; experiment: Ba/F3 KIF5B-RET G810R subcutaneous tumor model, second study; assay type: in vivo, mouse; conditions: for tumor regrowth: 30 mg/kg bid, day 15
[3] = read-out: IC50 kinase inhibition, FLT4
[4] = read-out: IC50 kinase inhibition, PDGFRα
[5] = read-out: IC50 kinase inhibition, PDGFRβ
[6] = read-out: IC50 kinase inhibition, FGFR1
[7] = read-out: IC50 kinase inhibition, FGFR2
[8] = read-out: IC50 kinase inhibition, FGFR3
[9] = read-out: IC50 kinase inhibition, DDR1
[10] = read-out: IC50 kinase inhibition, DDR2
[11] = read-out: IC50 kinase inhibition, JAK1
[12] = read-out: IC50 kinase inhibition, JAK2
[13] = read-out: IC50 kinase inhibition, JAK3

Sequence of JAK1 (P23458 whole entry): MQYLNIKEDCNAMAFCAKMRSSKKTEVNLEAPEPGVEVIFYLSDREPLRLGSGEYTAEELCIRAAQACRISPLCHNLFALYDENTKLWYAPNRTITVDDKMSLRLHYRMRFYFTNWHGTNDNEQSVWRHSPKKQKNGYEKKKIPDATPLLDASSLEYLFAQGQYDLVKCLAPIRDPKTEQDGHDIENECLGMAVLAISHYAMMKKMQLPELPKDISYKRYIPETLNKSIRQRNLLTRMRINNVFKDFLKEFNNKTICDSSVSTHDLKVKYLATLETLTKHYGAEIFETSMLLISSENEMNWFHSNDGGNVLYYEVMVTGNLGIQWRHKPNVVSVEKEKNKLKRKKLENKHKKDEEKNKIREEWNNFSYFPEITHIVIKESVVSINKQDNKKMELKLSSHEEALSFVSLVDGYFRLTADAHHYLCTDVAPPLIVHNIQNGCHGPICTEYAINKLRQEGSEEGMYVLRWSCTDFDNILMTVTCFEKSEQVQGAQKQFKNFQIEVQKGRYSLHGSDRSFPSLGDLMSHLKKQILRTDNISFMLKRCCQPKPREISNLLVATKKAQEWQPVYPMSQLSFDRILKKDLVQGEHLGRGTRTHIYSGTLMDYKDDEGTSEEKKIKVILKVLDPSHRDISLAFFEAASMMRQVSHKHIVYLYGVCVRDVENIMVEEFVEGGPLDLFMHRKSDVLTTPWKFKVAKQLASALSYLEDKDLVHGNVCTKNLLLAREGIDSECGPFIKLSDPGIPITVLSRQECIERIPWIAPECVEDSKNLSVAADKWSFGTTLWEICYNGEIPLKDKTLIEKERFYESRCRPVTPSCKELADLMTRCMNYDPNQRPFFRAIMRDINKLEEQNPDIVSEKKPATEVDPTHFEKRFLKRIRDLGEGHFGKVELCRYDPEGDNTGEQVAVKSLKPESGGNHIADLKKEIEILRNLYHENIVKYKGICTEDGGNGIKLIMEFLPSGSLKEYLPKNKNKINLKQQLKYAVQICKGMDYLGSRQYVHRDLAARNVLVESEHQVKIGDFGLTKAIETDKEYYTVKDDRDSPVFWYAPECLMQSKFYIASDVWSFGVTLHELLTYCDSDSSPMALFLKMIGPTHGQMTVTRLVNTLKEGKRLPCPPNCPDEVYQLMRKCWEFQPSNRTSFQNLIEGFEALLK
Sequence of DDR1 (Q08345 19-913): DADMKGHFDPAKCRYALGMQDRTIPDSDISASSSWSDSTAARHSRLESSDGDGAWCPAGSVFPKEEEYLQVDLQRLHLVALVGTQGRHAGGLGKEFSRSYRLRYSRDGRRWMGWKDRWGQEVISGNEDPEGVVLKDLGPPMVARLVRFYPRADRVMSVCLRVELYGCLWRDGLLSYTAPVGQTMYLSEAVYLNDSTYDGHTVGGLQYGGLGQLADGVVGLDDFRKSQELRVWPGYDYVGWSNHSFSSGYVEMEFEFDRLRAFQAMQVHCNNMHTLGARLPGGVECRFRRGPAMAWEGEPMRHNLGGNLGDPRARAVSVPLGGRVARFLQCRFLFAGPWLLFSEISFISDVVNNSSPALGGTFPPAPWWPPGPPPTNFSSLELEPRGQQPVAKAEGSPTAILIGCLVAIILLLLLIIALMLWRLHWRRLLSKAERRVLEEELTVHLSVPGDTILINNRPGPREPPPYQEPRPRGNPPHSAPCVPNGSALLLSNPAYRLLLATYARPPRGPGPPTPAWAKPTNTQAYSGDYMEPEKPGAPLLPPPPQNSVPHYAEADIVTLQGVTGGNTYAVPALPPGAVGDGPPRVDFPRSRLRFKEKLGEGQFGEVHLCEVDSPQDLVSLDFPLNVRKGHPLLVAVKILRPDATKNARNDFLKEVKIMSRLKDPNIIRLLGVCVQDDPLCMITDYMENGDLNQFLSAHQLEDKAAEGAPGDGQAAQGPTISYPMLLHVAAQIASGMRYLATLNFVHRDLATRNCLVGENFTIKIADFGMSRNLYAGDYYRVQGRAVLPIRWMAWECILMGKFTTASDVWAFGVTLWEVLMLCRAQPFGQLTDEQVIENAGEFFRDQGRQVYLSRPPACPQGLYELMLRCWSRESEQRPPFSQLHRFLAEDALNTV
Sequence of PDGFRβ (P09619 33-1106): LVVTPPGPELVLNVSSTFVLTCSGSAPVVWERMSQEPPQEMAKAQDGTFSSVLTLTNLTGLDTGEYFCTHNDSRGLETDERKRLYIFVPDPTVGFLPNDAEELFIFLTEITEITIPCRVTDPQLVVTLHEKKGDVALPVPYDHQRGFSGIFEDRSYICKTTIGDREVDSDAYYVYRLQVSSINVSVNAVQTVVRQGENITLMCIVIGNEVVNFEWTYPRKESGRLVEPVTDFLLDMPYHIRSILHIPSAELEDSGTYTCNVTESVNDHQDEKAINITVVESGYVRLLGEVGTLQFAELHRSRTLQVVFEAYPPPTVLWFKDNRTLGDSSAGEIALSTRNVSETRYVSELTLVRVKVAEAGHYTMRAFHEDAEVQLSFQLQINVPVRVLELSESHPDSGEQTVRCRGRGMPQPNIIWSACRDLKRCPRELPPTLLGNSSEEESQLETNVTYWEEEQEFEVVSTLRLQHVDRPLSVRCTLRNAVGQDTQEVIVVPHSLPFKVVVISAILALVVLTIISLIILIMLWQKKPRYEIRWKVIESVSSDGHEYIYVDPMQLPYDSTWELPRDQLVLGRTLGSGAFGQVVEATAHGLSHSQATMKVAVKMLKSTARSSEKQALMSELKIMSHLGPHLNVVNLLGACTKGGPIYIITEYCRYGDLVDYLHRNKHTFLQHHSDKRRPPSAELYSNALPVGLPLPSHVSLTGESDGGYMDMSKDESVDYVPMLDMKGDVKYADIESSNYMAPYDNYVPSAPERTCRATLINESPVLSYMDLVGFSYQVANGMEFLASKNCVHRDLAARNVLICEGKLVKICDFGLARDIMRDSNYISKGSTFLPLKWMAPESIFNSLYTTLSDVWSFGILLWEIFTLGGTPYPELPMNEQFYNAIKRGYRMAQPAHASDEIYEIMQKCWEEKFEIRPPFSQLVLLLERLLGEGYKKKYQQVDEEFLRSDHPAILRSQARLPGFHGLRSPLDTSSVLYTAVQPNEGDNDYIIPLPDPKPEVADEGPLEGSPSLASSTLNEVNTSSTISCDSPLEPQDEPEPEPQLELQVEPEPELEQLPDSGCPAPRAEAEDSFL
Sequence of FGFR3 (P22607 23-806): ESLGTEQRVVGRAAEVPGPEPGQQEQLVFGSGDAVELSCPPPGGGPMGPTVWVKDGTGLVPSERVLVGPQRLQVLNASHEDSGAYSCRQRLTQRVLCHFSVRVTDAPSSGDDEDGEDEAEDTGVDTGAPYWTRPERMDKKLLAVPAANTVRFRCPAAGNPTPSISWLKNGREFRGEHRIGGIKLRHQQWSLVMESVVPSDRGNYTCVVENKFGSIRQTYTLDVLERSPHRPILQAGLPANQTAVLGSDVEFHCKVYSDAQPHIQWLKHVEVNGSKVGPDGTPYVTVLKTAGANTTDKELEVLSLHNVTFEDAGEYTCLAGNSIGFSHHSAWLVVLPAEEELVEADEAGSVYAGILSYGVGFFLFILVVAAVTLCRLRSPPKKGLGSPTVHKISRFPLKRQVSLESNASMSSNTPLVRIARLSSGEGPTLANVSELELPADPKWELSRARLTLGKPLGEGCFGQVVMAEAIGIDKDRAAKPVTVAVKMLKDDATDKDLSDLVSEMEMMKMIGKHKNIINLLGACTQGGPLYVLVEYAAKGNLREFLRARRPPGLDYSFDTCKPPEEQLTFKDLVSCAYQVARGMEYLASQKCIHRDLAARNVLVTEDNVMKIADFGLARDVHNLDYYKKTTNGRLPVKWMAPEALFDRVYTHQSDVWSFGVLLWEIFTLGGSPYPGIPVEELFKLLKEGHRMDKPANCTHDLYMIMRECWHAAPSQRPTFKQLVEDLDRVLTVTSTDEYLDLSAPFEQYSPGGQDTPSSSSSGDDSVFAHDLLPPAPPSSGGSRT
Sequence of FGFR2 (P21802 22-821): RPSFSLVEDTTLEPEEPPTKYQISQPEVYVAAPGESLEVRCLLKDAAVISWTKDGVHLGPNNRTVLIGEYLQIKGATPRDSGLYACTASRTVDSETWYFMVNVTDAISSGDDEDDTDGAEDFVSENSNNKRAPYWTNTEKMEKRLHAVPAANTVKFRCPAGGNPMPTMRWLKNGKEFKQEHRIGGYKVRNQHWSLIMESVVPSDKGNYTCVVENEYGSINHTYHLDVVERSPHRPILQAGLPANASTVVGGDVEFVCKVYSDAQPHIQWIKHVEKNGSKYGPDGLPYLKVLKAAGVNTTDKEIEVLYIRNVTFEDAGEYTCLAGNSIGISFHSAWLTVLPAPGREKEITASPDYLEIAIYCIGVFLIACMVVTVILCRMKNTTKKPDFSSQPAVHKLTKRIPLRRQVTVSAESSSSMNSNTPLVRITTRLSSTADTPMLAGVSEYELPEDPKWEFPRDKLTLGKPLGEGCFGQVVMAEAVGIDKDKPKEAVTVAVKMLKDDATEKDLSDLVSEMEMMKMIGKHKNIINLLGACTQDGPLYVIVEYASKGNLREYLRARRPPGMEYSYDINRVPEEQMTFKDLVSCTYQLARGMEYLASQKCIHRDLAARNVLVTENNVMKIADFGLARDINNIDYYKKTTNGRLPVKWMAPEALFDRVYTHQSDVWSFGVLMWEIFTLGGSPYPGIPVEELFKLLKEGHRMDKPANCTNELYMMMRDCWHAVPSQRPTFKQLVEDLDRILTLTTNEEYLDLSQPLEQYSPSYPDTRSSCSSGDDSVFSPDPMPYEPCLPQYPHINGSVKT

SMILES	IC50 (FLT4; [3]) [µM]	IC50 (PDGFRα; [4]) [µM]	IC50 (PDGFRβ; [5]) [µM]	IC50 (FGFR1; [6]) [µM]	IC50 (FGFR2; [7]) [µM]	IC50 (FGFR3; [8]) [µM]	IC50 (DDR1; [9]) [µM]	IC50 (DDR2; [10]) [µM]	IC50 (JAK1; [11]) [µM]	IC50 (JAK2; [12]) [µM]	IC50 (JAK3; [13]) [µM]	GI50 (Ba/F3 KIF5B-RET V804M; BaF3, 72 h) [µM]	GI50 (Ba/F3 KIF5B-RET G810S; BaF3, 72 h) [µM]	tumor regrowth at the end of the study [1]	tumor regrowth [2]	also measured
COc1ccc(CN2C3CC2CN(c2ccc(-c4cc(OCC(C)(C)O)cn5ncc(C#N)c45)cn2)C3)cn1 [LOXO-292, selpercatinib]	0.004	0.044	0.067	0.064	0.034	0.051	0.103	0.417	> 3	> 3	2.84	0.0333 ± 0.0029	0.166 ± 0.02	trend to tumor regrowth	trend to tumor regrowth at day 15	
CO[C@]1(C(=O)N[C@@H](C)c2ccc(-n3cc(F)cn3)nc2)CC[C@H](c2nc(C)cc(Nc3cc(C)[nH]n3)n2)CC1 [BLU-667, pralsetinib]	0.0063	0.012	0.0077	0.015	0.035	0.058	0.0071	0.0077	0.0026	0.0011	0.0061			trend to tumor regrowth	trend to tumor regrowth at day 15	GI50 (Ba/F3 KIF5B-RET V804M; BaF3, Ba/F3 KIF5B-RET V804M, 72 hours, mean±SD of three experiments): 0.0086 ± 0.00058 µM; GI50 (Ba/F3 KIF5B-RET G810S; BaF3, Ba/F3 KIF5B-RET G810S, 72 hours, mean±SD of three experiments): 0.0506 ± 0.0314 µM
COCc1ccc(NC(=O)c2c(C#CCN3CCOCC3)n(C3(C)CC3)c3ncnc(N)c23)cc1 [HM06/TAS0953, 4-amino-N-(4-(methoxymethyl)phenyl)-7-(1-methylcyclopropyl)-6-(3-morpholinoprop-1-yn-1-yl)-7H-pyrrolo[2,3-d]pyrimidine-5-carboxamide]												0.0397 ± 0.0046	0.0119 ± 0.0036	did not show tumor regrowth		IC50 (FLT4): 0.15 µM; IC50 (PDGFRα): 0.735 µM; IC50 (PDGFRβ): 2.76 µM; IC50 (FGFR1): 2.72 µM; IC50 (FGFR2): 1.85 µM; IC50 (FGFR3): 2.15 µM; IC50 (DDR1): 1.19 µM; IC50 (DDR2): > 3 µM; IC50 (JAK1): > 3 µM; IC50 (JAK2): > 3 µM; IC50 (JAK3): > 3 µM; tumor volume at the end of the study vs control ([1]; 10 mg/kg bid oral): significantly decreased tumor volume; mean tumor volume on day 15 vs LOXO-292 and BLU-667 30 mg/kg bid ([2]; 50 mg/kg bid): significantly lower in the HM06/TAS0953 group than in the LOXO-292 and BLU-667 groups; tumor regression ([2]; 50 mg/kg bid): consistent tumor regression
